Results taken from patent US7138361B2, “Herbicidal heterocycles” (E. I. du Pont de Nemours and Company, priority 2000, dated 2006).

What was measured:
Type in all cases: in vivo
Sunflower = assay: Test C preemergence; details: scale 0 to 100
[1] = tested on: velvetleaf (Abutilon theophrasti); assay: Test C postemergence
Summary of the method: (§1)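 Visual 0–100 rating vs controls (0 = no effect, 100 = complete control) at 12–14 d, greenhouse. Compounds in non-phytotoxic solvent + surfactant; pre: sprayed after seeding; post: 1–4-leaf plants, 2–18 cm.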

[2] = tested on: goosegrass (Eleusine indica); assay: Test C postemergence
Summary of the method: as §1

[3] = tested on: morningglory (Ipomoea hederacea); assay: Test C postemergence
Summary of the method: as §1

[4] = tested on: crabgrass (Digitaria sanguinalis); assay: Test C postemergence
Summary of the method: as §1

[5] = tested on: bermudagrass (Cynodon dactylon); assay: Test C postemergence
Summary of the method: as §1

[6] = tested on: lambsquarters (Chenopodium album); assay: Test C postemergence
Summary of the method: as §1

kochia (Kochia scoparia) = assay: Test C postemergence
Summary of the method: as §1

corn (Zea mays) = assay: Test C postemergence
Summary of the method: as §1

[7] = tested on: common ragweed (Ambrosia elatior); assay: Test C postemergence
Summary of the method: as §1

[8] = tested on: pigweed (Amaranthus retroflexus); assay: Test C postemergence
Summary of the method: as §1

[9] = tested on: yellow nutsedge (Cyperus esculentus); assay: Test C postemergence
Summary of the method: as §1

[10] = tested on: giant foxtail (Setaria faberii); assay: Test C postemergence
Summary of the method: as §1

[11] = tested on: johnsongrass (Sorghum halepense); assay: Test C postemergence
Summary of the method: as §1

[12] = tested on: cocklebur (Xanthium strumarium); assay: Test C postemergence
Summary of the method: as §1

soybean (Glycine max) = assay: Test C postemergence
Summary of the method: as §1

[13] = tested on: barnyardgrass (Echinochloa crus-galli); assay: Test C flooded paddy test; details: for Barnyardgrass plant response rating: Flooded Paddy, scale 0 to 100, 0 no effect, 100 complete control; for Plant response rating, Barnyardgrass: flooded paddy test, scale 0 to 100 (0 no effect, 100 complete control)
Summary of the method: (§2)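 Response on a 0-to-100 scale (no effect to complete control) was assessed by eye versus controls. Plants had reached 2 leaves when treated in flooded paddy conditions. The assessment took place after 12–14 days of greenhouse growth.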

[14] = tested on: duck salad (Heteranthera limosa); assay: Test C flooded paddy test; details: for Ducksalad plant response rating: Flooded Paddy, scale 0 to 100, 0 no effect, 100 complete control; for Plant response rating, Ducksalad: flooded paddy test, scale 0 to 100 (0 no effect, 100 complete control)
Summary of the method: as §2

rice (Oryza saliva) = assay: Test C flooded paddy test; details: for Rice plant response rating: Flooded Paddy, scale 0 to 100, 0 no effect, 100 complete control; for Plant response rating, Rice: flooded paddy test, scale 0 to 100 (0 no effect, 100 complete control)
Summary of the method: as §2

[15] = Rate 125 g/ha, scale 0 to 100, 0 no effect, 100 complete control
[16] = Rate 250 g/ha, scale 0 to 100 (0 no effect, 100 complete control)
[17] = Rate 500 g/ha, scale 0 to 100 (0 no effect, 100 complete control)

CCOc1cc(N2CCC(n3ccc(C(C)(C)C)n3)C2=O)ccc1C (stereo not drawn) [Compound 106]
Plant response rating, Sunflower (Sunflower; Rate 31 g/ha): 70
Plant response rating, Sunflower (Sunflower; Rate 62 g/ha): 70
Plant response rating, Velvetleaf ([1]; Rate 31 g/ha, scale 0 to 100): 30
Plant response rating, Velvetleaf ([1]; Rate 62 g/ha, scale 0 to 100): 60
Plant response rating, Velvetleaf [1, 15]: 60
Plant response rating, Velvetleaf [1, 16]: 70
Plant response rating, Goosegrass ([2]; Rate 31 g/ha, scale 0 to 100): 0
Plant response rating, Goosegrass ([2]; Rate 62 g/ha, scale 0 to 100): 0
Plant response rating, Goosegrass [2, 15]: 0
Plant response rating, Goosegrass [2, 16]: 10
Plant response rating, Morningglory ([3]; Rate 31 g/ha, scale 0 to 100): 90
Plant response rating, Morningglory ([3]; Rate 62 g/ha, scale 0 to 100): 90
Plant response rating, Morningglory [3, 15]: 90
Plant response rating, Morningglory [3, 16]: 100
Plant response rating, Crabgrass ([4]; Rate 31 g/ha, scale 0 to 100): 0
Plant response rating, Crabgrass ([4]; Rate 62 g/ha, scale 0 to 100): 0
Plant response rating, Crabgrass [4, 15]: 0
Plant response rating, Crabgrass [4, 16]: 0
Plant response rating, Bermudagrass ([5]; Rate 31 g/ha, scale 0 to 100): 0
Plant response rating, Bermudagrass ([5]; Rate 62 g/ha, scale 0 to 100): 0
Plant response rating, Bermudagrass [5, 15]: 0
Plant response rating, Bermudagrass [5, 16]: 20
Plant response rating, Lambsquarters ([6]; Rate 31 g/ha, scale 0 to 100): 80
Plant response rating, Lambsquarters ([6]; Rate 62 g/ha, scale 0 to 100): 80
Plant response rating, Lambsquarters [6, 15]: 80
Plant response rating, Lambsquarters [6, 16]: 100
Plant response rating, Kochia (kochia (Kochia scoparia); Rate 31 g/ha, scale 0 to 100): 70
Plant response rating, Kochia (kochia (Kochia scoparia); Rate 62 g/ha, scale 0 to 100): 70
Plant response rating, Kochia (kochia (Kochia scoparia); [15]): 90
Plant response rating, Kochia (kochia (Kochia scoparia); [16]): 100
Plant response rating, Corn (corn (Zea mays); Rate 31 g/ha, scale 0 to 100): 0
Plant response rating, Corn (corn (Zea mays); Rate 62 g/ha, scale 0 to 100): 0
Plant response rating, Corn (corn (Zea mays); [15]): 0
Plant response rating, Corn (corn (Zea mays); [16]): 20
Plant response rating, Ragweed, Common ([7]; Rate 62 g/ha, scale 0 to 100): 0
Plant response rating, Ragweed, Common [7, 15]: 90
Plant response rating, Pigweed ([8]; Rate 31 g/ha, scale 0 to 100): 70
Plant response rating, Pigweed ([8]; Rate 62 g/ha, scale 0 to 100): 70
Plant response rating, Pigweed [8, 15]: 80
Plant response rating, Pigweed [8, 16]: 80
Plant response rating, Nutsedge ([9]; Rate 31 g/ha, scale 0 to 100): 0
Plant response rating, Nutsedge ([9]; Rate 62 g/ha, scale 0 to 100): 0
Plant response rating, Nutsedge [9, 15]: 0
Plant response rating, Nutsedge [9, 16]: 0
Plant response rating, Foxtail, Giant ([10]; Rate 31 g/ha, scale 0 to 100): 0
Plant response rating, Foxtail, Giant ([10]; Rate 62 g/ha, scale 0 to 100): 0
Plant response rating, Foxtail, Giant [10, 15]: 0
Plant response rating, Foxtail, Giant [10, 16]: 10
Plant response rating, Johnsongrass ([11]; Rate 31 g/ha, scale 0 to 100): 0
Plant response rating, Johnsongrass ([11]; Rate 62 g/ha, scale 0 to 100): 0
Plant response rating, Johnsongrass [11, 15]: 0
Plant response rating, Johnsongrass [11, 16]: 0
Plant response rating, Cocklebur ([12]; Rate 31 g/ha, scale 0 to 100): 30
Plant response rating, Cocklebur ([12]; Rate 62 g/ha, scale 0 to 100): 30
Plant response rating, Cocklebur [12, 15]: 80
Plant response rating, Cocklebur [12, 16]: 90
Plant response rating, Soybean (soybean (Glycine max); Rate 31 g/ha, scale 0 to 100): 70
Plant response rating, Soybean (soybean (Glycine max); Rate 62 g/ha, scale 0 to 100): 70
Plant response rating, Soybean (soybean (Glycine max); [15]): 70
Plant response rating, Soybean (soybean (Glycine max); [16]): 80
Barnyardgrass plant response rating ([13]; Rate 250 g/ha): 90
Barnyardgrass plant response rating ([13]; Rate 500 g/ha): 100
Plant response rating, Barnyardgrass ([13]; Rate 62 g/ha): 30
Plant response rating, Barnyardgrass ([13]; Rate 125 g/ha): 50
Ducksalad plant response rating ([14]; Rate 250 g/ha): 100
Ducksalad plant response rating ([14]; Rate 500 g/ha): 100
Plant response rating, Ducksalad ([14]; Rate 62 g/ha): 0
Plant response rating, Ducksalad ([14]; Rate 125 g/ha): 0
Rice plant response rating (rice (Oryza saliva); Rate 250 g/ha): 60
Rice plant response rating (rice (Oryza saliva); Rate 500 g/ha): 90
Plant response rating, Rice (rice (Oryza saliva); Rate 62 g/ha): 20
Plant response rating, Rice (rice (Oryza saliva); Rate 125 g/ha): 60

CCCOc1cc(N2CCC(n3ccc(C(C)(C)C)n3)C2=O)ccc1C (stereo not drawn) [Compound 107]
Plant response rating, Sunflower (Sunflower; Rate 62 g/ha): 0
Plant response rating, Velvetleaf ([1]; Rate 62 g/ha, scale 0 to 100): 30
Plant response rating, Velvetleaf [1, 16]: 50
Plant response rating, Velvetleaf [1, 17]: 80
Plant response rating, Velvetleaf ([1]; scale 0 to 100): 40
Plant response rating, Goosegrass ([2]; Rate 62 g/ha, scale 0 to 100): 0
Plant response rating, Goosegrass [2, 16]: 0
Plant response rating, Goosegrass [2, 17]: 0
Plant response rating, Morningglory ([3]; Rate 62 g/ha, scale 0 to 100): 60
Plant response rating, Morningglory [3, 16]: 100
Plant response rating, Morningglory [3, 17]: 100
Plant response rating, Crabgrass ([4]; Rate 62 g/ha, scale 0 to 100): 0
Plant response rating, Crabgrass [4, 16]: 0
Plant response rating, Crabgrass [4, 17]: 20
Plant response rating, Bermudagrass ([5]; Rate 62 g/ha, scale 0 to 100): 0
Plant response rating, Bermudagrass [5, 15]: 0
Plant response rating, Bermudagrass [5, 16]: 0
Plant response rating, Bermudagrass [5, 17]: 0
Plant response rating, Lambsquarters ([6]; Rate 62 g/ha, scale 0 to 100): 50
Plant response rating, Lambsquarters [6, 16]: 100
Plant response rating, Lambsquarters [6, 17]: 100
Plant response rating, Kochia (kochia (Kochia scoparia); Rate 62 g/ha, scale 0 to 100): 70
Plant response rating, Kochia (kochia (Kochia scoparia); [16]): 80
Plant response rating, Kochia (kochia (Kochia scoparia); [17]): 85
Plant response rating, Corn (corn (Zea mays); Rate 62 g/ha, scale 0 to 100): 0
Plant response rating, Corn (corn (Zea mays); [16]): 0
Plant response rating, Corn (corn (Zea mays); [17]): 0
Plant response rating, Corn (corn (Zea mays); scale 0 to 100): 0
Plant response rating, Ragweed, Common [7, 17]: 50
Plant response rating, Pigweed ([8]; Rate 62 g/ha, scale 0 to 100): 50
Plant response rating, Pigweed [8, 16]: 55
Plant response rating, Pigweed [8, 17]: 90
Plant response rating, Nutsedge ([9]; Rate 62 g/ha, scale 0 to 100): 0
Plant response rating, Nutsedge [9, 16]: 0
Plant response rating, Nutsedge [9, 17]: 0
Plant response rating, Foxtail, Giant ([10]; Rate 62 g/ha, scale 0 to 100): 0
Plant response rating, Foxtail, Giant [10, 16]: 0
Plant response rating, Foxtail, Giant [10, 17]: 0
Plant response rating, Johnsongrass ([11]; Rate 62 g/ha, scale 0 to 100): 0
Plant response rating, Johnsongrass [11, 16]: 0
Plant response rating, Johnsongrass [11, 17]: 0
Plant response rating, Johnsongrass ([11]; rate not given, scale 0 to 100): 0
Plant response rating, Cocklebur ([12]; Rate 62 g/ha, scale 0 to 100): 0
Plant response rating, Cocklebur [12, 16]: 30
Plant response rating, Cocklebur [12, 17]: 80
Plant response rating, Soybean (soybean (Glycine max); Rate 62 g/ha, scale 0 to 100): 0
Plant response rating, Soybean (soybean (Glycine max); [16]): 20
Plant response rating, Soybean (soybean (Glycine max); [17]): 25
Barnyardgrass plant response rating ([13]; Rate 250 g/ha): 70
Barnyardgrass plant response rating ([13]; Rate 500 g/ha): 80
Plant response rating, Barnyardgrass ([13]; Rate 62 g/ha): 20
Plant response rating, Barnyardgrass ([13]; Rate 125 g/ha): 30
Ducksalad plant response rating ([14]; Rate 250 g/ha): 0
Ducksalad plant response rating ([14]; Rate 500 g/ha): 70
Plant response rating, Ducksalad ([14]; Rate 62 g/ha): 0
Plant response rating, Ducksalad ([14]; Rate 125 g/ha): 0
Rice plant response rating (rice (Oryza saliva); Rate 250 g/ha): 0
Rice plant response rating (rice (Oryza saliva); Rate 500 g/ha): 20
Plant response rating, Rice (rice (Oryza saliva); Rate 62 g/ha): 0
Plant response rating, Rice (rice (Oryza saliva); Rate 125 g/ha): 0
